# In patent publication US20210023233A1, “ANTIBODY-PEPTIDE COMPLEXES AND USES THEREOF” (priority 2018, published 2021):
# System: CD20+ Daudi human lymphoma cells
# Test: Toxicity of cisplatin-loaded peptide: Daudi cell proliferation/survival after overnight treatment
# Format: cell-based
# Settings: treated overnight, 100 μg/ml
# Method: FIG. 4 is a graph plotting the toxicity of cisplatin-loaded peptide. CD20+ Daudi human lymphoma cells were treated overnight with 100 μg/ml ABRAXANE® (ABX), 100 μg/ml cisplatin (CIS), 1 mg/ml rituximab (RIT), 1 mg/ml peptide only (PEP), 100 μg/ml peptide-loaded cisplatin (PEP+CIS), peptide with rituximab (PEP+RIT), or 100 μg/ml peptide-loaded cisplatin with rituximab (PEP+CIS+RIT).
# CD20+ Daudi human lymphoma cells were treated overnight with 100 μg/ml ABRAXANE® (ABX), 100 μg/ml cisplatin (CIS), 1 mg/ml rituximab (RIT), 1 mg/ml peptide (SEQ ID NO:2) only (PEP), 100 μg/ml peptide-loaded cisplatin (PEP+CIS), peptide with rituximab (PEP+RIT), or 100 μg/ml peptide-loaded cisplatin with rituximab (PEP+CIS+RIT), and cell survival was assessed (FIG. 4).
Molecule,"Daudi proliferation, % of the total (control) proliferation [%]",Toxicity to Daudi cells compared with cisplatin-containing peptide (in words)
PEP+CIS (VVLCQLCVLHEKTPVSDR),80,
N.N.[Cl][Pt][Cl] [cisplatin],,equivalent
